Results taken from PubChem BioAssay (NCI).
Several values for one entry are separate records, joined by “and”; a condition that tells them apart may be missing. Equal values may be shown once.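 Five concentrations, 48 hours, 96-well plates. The concentration for 50% growth inhibition is given as GI50. At the TGI there is no net growth.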

Assays:
Assay in all cases: inhibition of tumour cell growth, NCI panel, 48 h
HS 578T breast = system: HS 578T breast
HT29 colon = system: HT29 colon
IGROV1 ovarian = system: IGROV1 ovarian
NCI/ADR-RES ovarian = system: NCI/ADR-RES ovarian
OVCAR-4 ovarian = system: OVCAR-4 ovarian
SK-MEL-28 melanoma = system: SK-MEL-28 melanoma
SNB-19 CNS = system: SNB-19 CNS
UACC-257 melanoma = system: UACC-257 melanoma
UACC-62 melanoma = system: UACC-62 melanoma
UO-31 renal = system: UO-31 renal

Compound	TGI (HS 578T breast) [µM]	TGI (HT29 colon)	TGI (IGROV1 ovarian)	TGI (NCI/ADR-RES ovarian) [µM]	TGI (OVCAR-4 ovarian)	TGI (SK-MEL-28 melanoma)	TGI (SNB-19 CNS)	TGI (UACC-257 melanoma)	TGI (UACC-62 melanoma)	TGI (UO-31 renal)	GI50 (HS 578T breast) [µM]	GI50 (HT29 colon) [µM]	GI50 (IGROV1 ovarian) [µM]	GI50 (NCI/ADR-RES ovarian) [nM]	GI50 (OVCAR-4 ovarian) [µM]	GI50 (SK-MEL-28 melanoma) [µM]	GI50 (SNB-19 CNS) [µM]	GI50 (UACC-257 melanoma) [µM]	GI50 (UACC-62 melanoma) [µM]	GI50 (UO-31 renal) [µM]
C=CCOc1ccc2c(C)cc(=O)oc2c1C	77.1	> 100 µM	> 100 µM	> 100	> 100 µM	> 100 µM	> 100 µM	> 100 µM	> 100 µM	> 100 µM	–	–	–	–	–	–	–	–	–	–
C=CC(=O)Nc1cc(Nc2ncc(C(=O)OC(C)C)c(-c3cn(C)c4ccccc34)n2)c(OC)cc1N(C)CCN(C)C	21.5	5.99 µM	3.12 µM	17.7	21.3 µM	6.55 µM	22.4 µM	3.71 µM	7 µM	12.9 µM	6.43	2.32	0.399	2300	4.97	2.43	6.8	1.8	2.34	0.442
Cc1cnc(NCCCN(C)C)c2c1[nH]c1ccc3cc(O)ccc3c12	2.22	2.53 µM	4.6 µM	20.1	1.19 µM	2.86 µM	3.12 µM	11.5 µM	1.9 µM	5.8 µM	–	–	–	–	–	–	–	–	–	–
O=C(Nc1ccc(F)cc1)Nc1ccc(Cl)c([N+](=O)[O-])c1	24.2	12.4 µM	18.6 µM	10.3	14 µM	14.2 µM	14.3 µM	8.85 µM	13.2 µM	10.6 µM	4.02	3.2	4.77	2600	2.78	3.77	3.54	2.73	3.04	2.69
Cc1ccc2c(C)c3c(ccc4ccccc43)c[n+]2c1	22.3	> 100 µM	80.1 µM	> 100	41.7 µM	18.4 µM	24.7 µM	77.1 µM	22 µM	> 100 µM	4.37	33.5	9.28	> 100000	5.21	4.68	2.84	10.4	8.88	27.8
Nc1c(C(=O)c2cccc(CCS(N)(=O)=O)c2)cnn1-c1ccc(F)cc1	> 25	> 25 µM	> 25 µM	> 25	> 25 µM	> 25 µM	> 25 µM	> 25 µM	> 25 µM	> 25 µM	> 25	> 25	> 25	> 25000	> 25	> 25	> 25	> 25	> 25	> 25
NC(N)=NS(=O)(=O)c1ccc(Nc2c3ccccc3nc3c(C(=O)NCCO)cccc23)cc1	–	–	–	> 100	–	–	–	–	–	–	21.3	29.7	17.8	48700	25.3	20.3	26.6	39.4	18.1	18
COc1cccc(C2c3cc4c(cc3OC(C)(N3CCCC3)C2C)OCO4)c1O (centres undefined)	5.59	12.2 µM	> 70 µM	11.8	> 100 µM	> 100 µM	> 100 µM	> 100 µM	46.8 µM	56.4 µM	–	–	–	–	–	–	–	–	–	–
Cc1ccc(CN2CCC(C(=O)Nc3ccc(-c4cc5ccccc5[nH]4)cc3)CC2)o1	> 100	> 100 µM	> 100 µM	> 100	> 100 µM	> 100 µM	> 100 µM	> 100 µM	> 100 µM	> 100 µM	26.3	94.2	> 100	> 100000	70.1	88.9	> 100	> 100	45.5	> 100
O=[N+]([O-])c1ccc2c(c1)/C(=N/N=C1c3ccccc3Cc3ccccc31)c1cc([N+](=O)[O-])cc([N+](=O)[O-])c1-2	6.81	4.07 µM	3.04 µM	4.91	3.13 µM	9.05 µM	23.3 µM	4.38 µM	6.46 µM	4.41 µM	–	–	–	–	–	–	–	–	–	–
CCN1CCN(Cc2ccc(NC(=O)c3cccc(C#Cc4cccc5[nH]nc(N)c45)c3)cc2C(F)(F)F)CC1	3.19	1.16 µM	0.717 µM	5.21	1.61 µM	1.78 µM	2.3 µM	2.82 µM	1.77 µM	1.28 µM	0.518	0.118	0.0681	1590	0.198	0.568	1.07	1.05	0.509	0.299
COc1ccc(CC2c3cc4c(cc3CCN2C)OCO4)c(C=O)c1OC (centres undefined)	> 100	> 100 µM	> 100 µM	> 100	> 100 µM	> 100 µM	> 100 µM	> 100 µM	> 100 µM	> 100 µM	–	–	–	–	–	–	–	–	–	–
Nc1ccccc1C#C/C=C\C#Cc1ccccc1OC(F)(F)F	22	28.7 µM	39.9 µM	11.1	42 µM	36.8 µM	9.72 µM	50.7 µM	21 µM	22.8 µM	4.08	3.62	5.64	2820	11.6	7.55	2.55	12	5.94	4.63
O=C(Nc1ccccc1)c1c(O)[nH]c(=S)[nH]c1=O	74.3	125 µM and > 250 µM	97.1 µM and > 250 µM	83.8	103 µM and > 250 µM	124 µM and > 250 µM	118 µM and > 250 µM	112 µM and > 250 µM	55.2 µM and 162 µM	65.9 µM and 174 µM	–	93.5	45.9	–	87.2	127	40.7	83.1	33	65.4
